Measurements published in paper PMC11435058, “Synthesis of New Thiazole-Privileged Chalcones as Tubulin Polymerization Inhibitors with Potential Anticancer Activities” (Pharmaceuticals, 2024).
pIC50: −log10 of the molar value.

Legend:
HT-29 = tested on: HT-29; parameters: method as in doi:10.1080/00397911.2021.1884262; conditions: HT-29 colorectal cancer cells; cited from earlier work
Lovo = tested on: Lovo; parameters: method as in doi:10.1080/00397911.2021.1884262; conditions: Lovo colorectal cancer cells; cited from earlier work
HCT-116 = tested on: HCT-116; parameters: method as in doi:10.1080/00397911.2021.1884262; conditions: HCT-116 colorectal cancer cells; cited from earlier work
UACC-62 = assay: NCI-60 anticancer screen (SRB; single dose and five doses); conditions: Homo sapiens
BT-549 = assay: as above; conditions: Homo sapiens
HCC-2998 = assay: as above
UO-31 = assay: as above; conditions: Homo sapiens
T-47D = assay: as above; conditions: Homo sapiens, T47D
DU-145 = assay: as above; conditions: Homo sapiens
IGROV1 = assay: as above; conditions: Homo sapiens
HS 578T = assay: as above; conditions: Homo sapiens
HT29 = assay: as above; conditions: Homo sapiens
OVCAR-5 = assay: as above; conditions: Homo sapiens
786-0 = assay: as above; conditions: Homo sapiens
EKVX = assay: as above; conditions: Homo sapiens
CAKI-1 = assay: as above; conditions: Homo sapiens
SNB-75 = assay: as above
TK-10 = assay: as above; conditions: Homo sapiens
OVCAR-4 = assay: as above; conditions: Homo sapiens
COLO 205 = assay: as above; conditions: Homo sapiens
SK-OV-3 = assay: as above; conditions: Homo sapiens
tubulin = assay: In vitro tubulin polymerization inhibition assay; format: biochemical; conditions: 4 mg/mL tubulin, 37°C, absorbance at 340 nm
Method: 4.2.2. In Vitro Tubulin Polymerization Inhibition Assay.
2p, and the reference drug CD -4) with the microtubule system. Specifically, the in vitro inhibition of tubulin polymerization was evaluated for these compounds. The standard tubulin polymerization reaction was carried out, containing 100 μL of 4 mg/mL tubulin in a buffer solution of 80 mM PIPES (pH 6.9), 0.5 mM EGTA, 2 mM MgCl2, and 1 mM GTP. Polymerization was initiated by incubating the reaction […]
Under these conditions, polymerization typically reaches a maximum absorbance of […]
growth, and steady state. In this experimental set up, an absorbance of 0.1 at 340 nm corresponds to approximately 1 mg/mL of polymerized tubulin, meaning that around […]
40% of the tubulin is polymerized, allowing for the detection of both enhancers and inhibitors of polymerization. The inhibitory effect of each compound on tubulin polymerization was quantified by determining the IC50 values, which were reported as the mean ± standard deviation from three independent experiments. […]

SK-MEL-28 = assay: NCI-60 anticancer screen (SRB; single dose and five doses); conditions: Homo sapiens

In the case of Cc1nc(-c2ccc(C(F)(F)F)cc2)sc1C(=O)/C=C/c1ccc(C(=O)O)cc1 [V], the pIC50 (HT-29) is listed as 5.10, the pIC50 (Lovo) is listed as 5.66 and the pIC50 (HCT-116) is listed as 5.51.

Molecule COc1ccc(/C=C\c2cc(OC)c(OC)c(OC)c2)cc1O [CA-4, Combretastatin-A4, reference compound] has a GI50 (UACC-62; UACC-62) of 0.01 µM, an IC (TGI) (UACC-62; UACC-62, read-out: TGI) of 80.5 µM and a GI50 (BT-549; BT-549) of 0.01 µM. It also gave an IC (TGI) (BT-549; BT-549, read-out: TGI) of 8.09 µM, a GI50 (HCC-2998; Homo sapiens, HCC 2998) of 0.05 µM and a CC50 (HCC-2998; Homo sapiens, HCC 2998, read-out: LC50) of 26.9 µM. For the same molecule, the TGI (HCC-2998; five-dose, Colon Cancer HCC-2998) was 1.22 µM, the GI50 (UO-31; UO-31) was 0.19 µM and the IC (TGI) (UO-31; UO-31, read-out: TGI) was 4.16 µM. For the same molecule, the GI50 (T-47D) was 48 µM, the CC50 (T-47D; read-out: LC50) was over 100 µM and the IC (TGI) (T-47D; read-out: TGI) was 2.04 µM. The GI50 (DU-145; DU-145) was 0.01 µM, the CC50 (DU-145; DU-145, read-out: LC50) was over 100 µM and the IC (TGI) (DU-145; DU-145, read-out: TGI) was 78.9 µM. It also gave a GI50 (IGROV1; IGROV-1) of 0.06 µM, a CC50 (IGROV1; IGROV-1, read-out: LC50) of over 100 µM and an IC (TGI) (IGROV1; IGROV-1, read-out: TGI) of 63.5 µM. For the same molecule, the GI50 (HS 578T) was 0.15 µM, the CC50 (HS 578T; read-out: LC50) was over 100 µM and the IC (TGI) (HS 578T; read-out: TGI) was 0.22 µM. The GI50 (HT29; HT-29) was 0.66 µM, the CC50 (HT29; HT-29, read-out: LC50) was 38.7 µM and the IC (TGI) (HT29; HT-29, read-out: TGI) was 5.51 µM. For the same molecule, the GI50 (OVCAR-5; OVCAR-5) was 0.18 µM, the CC50 (OVCAR-5; OVCAR-5, read-out: LC50) was over 100 µM and the IC (TGI) (OVCAR-5; OVCAR-5, read-out: TGI) was 83.2 µM. It also gave a GI50 (786-0; 786-0) of 0.02 µM, a CC50 (786-0; 786-0, read-out: LC50) of over 100 µM and an IC (TGI) (786-0; 786-0, read-out: TGI) of over 100 µM. The GI50 (EKVX) was 0.36 µM, the CC50 (EKVX; read-out: LC50) was over 100 µM and the IC (TGI) (EKVX; read-out: TGI) was 82 µM. The GI50 (CAKI-1; CAKI-1) was 0.04 µM, the CC50 (CAKI-1; CAKI-1, read-out: LC50) was 97 µM and the IC (TGI) (CAKI-1; CAKI-1, read-out: TGI) was 8.22 µM. For the same molecule, the GI50 (SNB-75; Homo sapiens, SNB-75) was 0.83 µM, the CC50 (SNB-75; Homo sapiens, SNB-75, read-out: LC50) was 82.4 µM and the TGI (SNB-75; five-dose, CNS Cancer SNB-75) was 24.72 µM. For the same molecule, the GI50 (TK-10; TK-10) was 0.57 µM, the CC50 (TK-10; TK-10, read-out: LC50) was over 100 µM and the IC (TGI) (TK-10; TK-10, read-out: TGI) was 11.5 µM. It also gave a GI50 (OVCAR-4; OVCAR-4) of 0.26 µM, a CC50 (OVCAR-4; OVCAR-4, read-out: LC50) of 20.2 µM and an IC (TGI) (OVCAR-4; OVCAR-4, read-out: TGI) of 0.16 µM. It also gave a GI50 (COLO 205; COLO 205) of 2.49 µM, a CC50 (COLO 205; COLO 205, read-out: LC50) of over 100 µM and an IC (TGI) (COLO 205; COLO 205, read-out: TGI) of 43.2 µM. For the same molecule, the GI50 (SK-OV-3; SK-OV-3) was 28.4 µM, the CC50 (SK-OV-3; SK-OV-3, read-out: LC50) was 89.5 µM and the IC (TGI) (SK-OV-3; SK-OV-3, read-out: TGI) was 0.36 µM. The pIC50 (tubulin) was […], the pIC50 (tubulin; listed as Combretastatin-A4 (CA-4)) was […] and the GI50 (SK-MEL-28; SK-MEL-28) was 3.16 µM. It also gave a CC50 (SK-MEL-28; SK-MEL-28, read-out: LC50) of 90.8 µM and an IC (TGI) (SK-MEL-28; SK-MEL-28, read-out: TGI) of 82.4 µM.
